This note sets out measurements from PMC3486708 (Journal of medicinal chemistry, 2012).

In data set [1] the test system is MC65 cells. The data set can be described thus: Toxicity to MC65 cells in the presence of tetracycline. The class given is cell-based. To be noted: median toxic concentration to MC65 cells, presence of TC.
Data set [2] concerns ABCA1. As to the kind of experiment: ABCA1 gene expression in Huh-7 cells. The class given is cell-based, human. As to conditions: 24 h, compared to mock-treated cells.
Data set [3] relates to MC65 cells. The data set can be described thus: MC65 cell protection assay. The class given is cell-based. As to conditions: for protection of MC65 cell death (in words): MC65 cells, absence of TC.

Bounds are passed on as bounds.

For `Cc1cc2c(c(=O)o1)C=C1CC[C@H](C(C)CNCc3ccc(O)cc3)C[C@@H]1O2` (mixture of isomers) [Compound 2b, (5aS,7S)-3-Methyl-7-[(1R) and (1S)1-(4-hydroxybenzylamino)propan-2-yl]-1H,7H-5a,6,8,9-tetrahydro-1-oxopyrano[4,3-b][1]benzopyran], the TD50 in data set [1] turned out to be 49.3 ± 0.127 µM. Further, the “expression of ABCA1” value in data set [2] was “significantly increased”. Turning to `CCCCCCCCCCC(C)(C)C(=O)Nc1c(OC)cc(OC)cc1OC` [CI-976, reference compound], in data set [3] (up to 50 μM), the “protection of MC65 cell death” value is “inactive”. Further, the “expression of ABCA1” value in data set [2] is reported as “significantly increased”. In the case of `Cc1cc2c(c(=O)o1)C=C1CC[C@H](C(C)CNC(=O)c3ccccc3O)C[C@@H]1O2` (stereo partly shown) [Compound 6b], the “protection of MC65 cell death (in words)” value in data set [3] is recorded as “poor activity”. In the case of `Cc1cc2c(c(=O)o1)C=C1CC[C@H](C(C)CNCc3ccc(C#N)cc3)C[C@@H]1O2` (stereo partly shown) [Compound 2i], the “protection of MC65 cell death (in words)” value in data set [3] is “abolishes the activity”. Take `Cc1cc2c(c(=O)o1)C=C1CC[C@H](C(C)CNCc3ccc(O)c4ccccc34)C[C@@H]1O2` (stereo partly shown) [Compound 4a]: the TD50 in data set [1] turned out to be 13.7 ± 0.704 µM. Further, the “expression of ABCA1” value in data set [2] is recorded as “significantly increased”. For `Cc1cc2c(c(=O)o1)C=C1CC[C@H](C(C)CNCc3ccc(CO)cc3)C[C@@H]1O2` (stereo partly shown) [Compound 2e], the TD50 in data set [1] is more than 50 µM.

Take `CC(=O)Oc1ccccc1C(=O)NCC(C)[C@H]1CCC2=Cc3c(cc(C)oc3=O)O[C@H]2C1` (stereo partly shown) [Compound 6a]: the “protection of MC65 cell death (in words)” value in data set [3] was “inactive”. For the molecule `Cc1cc2c(c(=O)o1)C=C1CC[C@H](C(C)Cn3cnc(N)c4ncnc3-4)C[C@@H]1O2` (stereo partly shown) [Compound 1], the TD50 in data set [1] amounted to 39.0 ± 1.12 µM. The “expression of ABCA1” value in data set [2] is “significantly increased”. For the molecule `Cc1cc2c(c(=O)o1)C=C1CC[C@H](C(C)CNCc3ccc(O)c(F)c3)C[C@@H]1O2` (stereo partly shown) [Compound 3f], the TD50 in data set [1] was more than 50 µM.
